Assay: Dissolution time of a 2.5-micron encapsulated microbubble in air-saturated liquid
Type: physicochemical
Conditions: for Dissolution time: 2.5-micron encapsulated microbubble, air-saturated liquid

Dissolution time [h]	stability of microbubbles relative to microbubbles containing C5F12 (from Table 4)	stability of microbubbles relative to microbubbles containing C3F8 (from Table 4)	stability of microbubbles relative to microbubbles containing C4F10 (from Table 4)	Compound
83	–	–	–	FC(F)(F)C(F)(F)C(F)(F)C(F)(F)F [Perfluorobutane]
–	only minimal increase in stability	–	–	FC(F)(F)C(F)(F)C(F)(F)C(F)(F)C(F)(F)C(F)(F)F [Perfluorohexane]
408	–	~14,000 times	about five	FC(F)(F)C(F)(F)C(F)(F)C(F)(F)C(F)(F)F [Perfluoropentane (DDFP), Perfluoropentane]
0.7	–	–	–	FC(F)(F)C(F)(F)C(F)(F)F [Perfluoropropane]
